Data set [1] is described as follows: Hepatocyte intrinsic clearance assay (metabolic stability), human hepatocytes. Particulars: male, human, cryopreserved pooled hepatocytes, Human Hepatocytes, 1 μM test compound. It counts as in vitro ADME. From the text: (§1) The liver is an important organ in the body for drug metabolism. This Example describes hepatocyte intrinsic clearance assays using both human and rat hepatocytes to evaluate the metabolic stability of the indole compounds disclosed herein. The parameters measured include t1/2 (half-life), CLint (intrinsic clearance), and EH (hepatic extraction ratio).
(§2) Testosterone (Lot FE111011-01) was obtained from Cerilliant (Round Rock, Tex.). 7-hydroxycoumarin (Lot 11631ED) was obtained from Sigma Aldrich (St. Louis, Mo.). Cryopreserved human hepatocytes pooled from ten donor males (X008001), cryopreserved male IRC/CD-1 mouse hepatocytes (M005052), INVITROGRO HI Medium (incubation), and INVITROGRO HT Medium (thawing) were obtained from Bioreclamation IVT (Baltimore, Md.). All solvents were obtained from commercial sources and used without further purification.
(§3) Each test compound was prepared as a 1 mM stock solution in DMSO. A 2 μM solution of test compound and positive controls were prepared in INVITROGRO HI Medium (incubation). These solutions were pre-warmed in a sterile incubator set to maintain 37° C., 5% CO2, and 98% humidity. Cryopreserved hepatocytes were prepared at a concentration of 2×10^6 living cells/mL in incubation media and pre-warmed in the incubator. The compound solutions and hepatocyte mixtures were then combined at a ratio of 1:1 (v:v). The final volume of the reaction mixture was 750 μL, containing 1 μM test compound (10 μM for 7-hydroxycoumarin) and […]. The reaction mixture was placed in the incubator on a plate shaker. After 0, 15, 30, 60, 90, and 120 minutes of incubation, 100 μL of reaction mixtures were removed from the incubation plate and mixed with 150 μL of ice-cold acetonitrile in a designated well of a 96-well crash plate. The 96-well crash plate was placed on ice for 15 min, and samples were centrifuged (3,600 RPM, 10 min, 4° C.) to precipitate protein. The supernatants were diluted 1:1 (v:v) with water containing 0.15 μM verapamil and/or 1 μM tolbutamide (internal standards for positive and negative modes, respectively) in a 96-well shallow injection plate. This plate was sealed for LC-MS analysis. All measurements were done in duplicate.
(§4) The residual compound remaining (% R) was determined from LC-MS peak areas by comparison to the zero time point. Metabolic half-life (t1/2) and intrinsic clearance (CLint) values were calculated from the slope of the plot of ln (% R) vs. time and the concentration of hepatocytes present in the incubation. Percent remaining at 60 minutes was calculated by plugging in the 60 minute value into the slope equation generated by the percent remaining time points.
(§5) In vivo hepatic clearance CLH was calculated using the well stirred liver model according to the following equation:
(§6) [formula] where QH is the total liver blood flow, fu is unbound fraction of the drug, and CL′int is defined as follows: CL′int=CLint×(10^6 cells/g of liver weight)×(g liver weight/kg of body weight). In the first approximation, used in this study, fu=1.
(§7) Hepatic extraction ratio EH was calculated using the following equation:
(§8) [formula] Corresponding physiological parameters used in calculations for all species are shown below in Table 3.

The subject of data set [2] is human hepatocytes. Described as above. It counts as in vitro ADME. Particulars: Human Hepatocytes; for EH (hepatic extraction ratio): well stirred liver model, fu=1.
Excerpt: as §1, §2, §3, §4, §5, §6, §7, §8

The nature of data set [3]: Hepatocyte intrinsic clearance assay (metabolic stability), rat hepatocytes. It counts as in vitro ADME. Particulars: rat, cryopreserved hepatocytes, Rat Hepatocytes, 1 μM test compound.
Excerpt: as §1, §2, §3, §4, §5, §6, §7, §8

For data set [4], the system named is rat hepatocytes. Described as above. The following applies: Rat Hepatocytes; for EH (hepatic extraction ratio): well stirred liver model, fu=1. It counts as in vitro ADME.
Excerpt: as §1, §2, §3, §4, §5, §6, §7, §8

The target of data set [5] is T1, AhR (Homo sapiens, UniProt P35869).
T1 construct: host or cells: human HepG2 cells
T1 sequence (P35869 11-848): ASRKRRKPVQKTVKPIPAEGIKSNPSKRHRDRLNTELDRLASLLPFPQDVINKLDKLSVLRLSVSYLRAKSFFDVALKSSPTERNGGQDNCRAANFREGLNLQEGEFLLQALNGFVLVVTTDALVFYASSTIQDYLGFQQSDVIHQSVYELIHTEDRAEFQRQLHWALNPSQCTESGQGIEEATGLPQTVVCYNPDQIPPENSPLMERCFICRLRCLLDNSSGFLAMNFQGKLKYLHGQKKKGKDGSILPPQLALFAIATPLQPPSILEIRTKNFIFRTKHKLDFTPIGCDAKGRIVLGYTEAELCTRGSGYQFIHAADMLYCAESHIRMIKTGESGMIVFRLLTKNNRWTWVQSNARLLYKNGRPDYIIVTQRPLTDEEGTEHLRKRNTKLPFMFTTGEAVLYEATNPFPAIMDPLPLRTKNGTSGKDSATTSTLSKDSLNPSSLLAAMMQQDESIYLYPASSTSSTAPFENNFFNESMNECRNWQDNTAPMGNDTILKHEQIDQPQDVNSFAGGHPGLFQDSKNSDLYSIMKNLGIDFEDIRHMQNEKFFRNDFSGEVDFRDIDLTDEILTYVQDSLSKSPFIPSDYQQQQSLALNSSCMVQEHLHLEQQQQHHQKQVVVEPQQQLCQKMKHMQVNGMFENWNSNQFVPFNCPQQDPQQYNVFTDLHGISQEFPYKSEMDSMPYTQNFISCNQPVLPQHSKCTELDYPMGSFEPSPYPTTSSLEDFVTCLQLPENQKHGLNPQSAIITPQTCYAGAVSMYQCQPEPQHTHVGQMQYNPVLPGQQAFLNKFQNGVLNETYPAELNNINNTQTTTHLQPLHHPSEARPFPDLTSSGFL
Briefly: EROD assay (7-ethoxy-resorufin-O-deethylase; CYP1A1 activity) in human HepG2 cells. The class given is cell-based. The protocol:
CYP1A1 induction is under the control of the AhR signaling pathway. This Example describes an in vitro assay (7-ethoxy-resorufin-O-deethylase (EROD) assay) that evaluated the AhR modulating activities of the indole compounds described herein. In this assay, the indole compounds were incubated with human HepG2 cells or mouse Hepa1-6 cells. The activity of CYP1A1 in the cells was measured by the conversion of substrate 7-ethoxyresorufin, with the readout being a fluorescence signal associated with the conversion product. The EC50 values of the indole compounds as well as the maximum luminescence induced by them in the assay were determined.
Human HepG2 cells were obtained from Sigma Aldrich (Catalog 85011430-1VL).
Human HepG2 cells were grown to 60-80% confluency in tissue culture flasks, lifted with non-enzymatic cell dissociation solution (cell stripper), seeded in a 384-well plate at 5,000 cells per well, treated with the test compounds, and incubated for 20 hours overnight at 37° C. The treatment medium was removed and a solution of substrate 7-ethoxyresorufin (ETX) was added to initiate the reaction. The plate was incubated at 37° C. for 30 minutes. The reaction was subsequently terminated by adding tempered methanol. Fluorescent emission was measured at 590 nm with excitation at 530 nm in a FLEXSTATION III instrument (Molecular Devices).

Setting [6] is: HepG2, human HepG2 cells, Plate 1.

pEC50: −log10 of the molar value.

This note sets out measurements from patent US11390621B2, “Chiral indole compounds and their use” (ARIAGEN, INC., priority 2019, dated 2022).

Usually half-life stands for the time needed for the level to fall by half in the phase considered. A higher half-life goes with slow loss. As a reminder, the hepatocyte CLint is the capacity of the preparation to metabolise the compound, expressed as a volume cleared per time. Higher therefore signals faster metabolism. In general, pEC50 refers to the EC50 on a negative log10 scale, so that one unit is a factor of ten. A high value points to a low EC50. The term EC90 denotes the concentration needed for an effect of 90%. Higher therefore signals weaker potency.

On to `O=C(c1nc(C(O)C(F)(F)F)cs1)c1c[nH]c2ccccc12` (centres unmarked) [ARI088], for which the values for the half-life at 1 μM in data set [1] and in data set [3] were 54 min and 60 min, respectively. Besides, the intrinsic metabolic clearance (hepatocyte CLint) at 1 μM in data set [1] was found to be 12.4 µL/min/1e6 cells; in data set [3] it was 11.6 µL/min/1e6 cells. Also, the “EH (hepatic extraction ratio)” value in data set [2] was 24.1%; in data set [4] it was 43.7%.
On to `CCC(C)(O)c1csc(C(=O)c2c[nH]c3cc(F)ccc23)n1` (centres unmarked) [ARI209, (6-fluoro-1H-indol-3-yl)(4-(2-hydroxybutan-2-yl)thiazol-2-yl)methanone], for which the half-life at 1 μM in data set [1] is 48 min; in data set [3], 54 min. In addition, the results for the hepatocyte CLint at 1 μM in data set [1] and in data set [3] were 14.7 µL/min/1e6 cells and 12.2 µL/min/1e6 cells, respectively. The figures for the “EH (hepatic extraction ratio)” value in data set [2] and in data set [4] were 25.0% and 44.9%, respectively.
`COC(=O)c1csc(C(=O)c2c[nH]c3ccccc23)n1` [ARI-001, ITE, reference compound]: the pEC50 in data set [5] (human HepG2 cells, Plate 1) was 5.35; in data set [5] (human HepG2 cells, Plate 2) it was 4.54. Besides, the 90% effect concentration (EC90) in data set [5] (human HepG2 cells, Plate 1) was 13200 nM; in data set [5] (human HepG2 cells, Plate 2), 458000 nM. Further, the figures for the CLint in data set [2] (1 μM test compound) and in data set [4] (1 μM test compound) were 767.365 μL/min/10^6 cells and 89.786 μL/min/10^6 cells, respectively. For the same compound, the “EH (hepatic extraction ratio)” value in data set [2] was 31.3%; in data set [4], 85.7%.
In data set [5] (setting [6]), `CC[C@H](O)c1csc(C(=O)c2c[nH]c3ccc(F)cc23)n1` [ARI-194] came in with a 90% effect concentration (EC90) of 517 nM. This compound also showed a pEC50 in data set [5] (human HepG2 cells, Plate 1) of 6.39. Also, the half-life at 1 μM in data set [1] and in data set [3] was 36 min throughout. The hepatocyte CLint at 1 μM is 20.5 µL/min/1e6 cells in data set [1] and 18.2 µL/min/1e6 cells in data set [3]. The “EH (hepatic extraction ratio)” value in data set [2] turned out to be 26.5%; in data set [4], 55.0%.
Compound `CC[C@@H](O)c1csc(C(=O)c2c[nH]c3ccc(F)cc23)n1` [ARI-195] gave a 90% effect concentration (EC90) in data set [5] (setting [6]) of 847 nM. The compound also showed a negative logarithm of the EC50 (pEC50) in data set [5] (human HepG2 cells, Plate 1) of 6.54. Also, the half-life at 1 μM in data set [1] is 36 min; in data set [3], 78 min. Moreover, the results for the hepatocyte CLint at 1 μM in data set [1] and in data set [3] were 20.6 µL/min/1e6 cells and 9.16 µL/min/1e6 cells, respectively. The entries for the “EH (hepatic extraction ratio)” value in data set [2] and in data set [4] were 26.5% and 38.0%, respectively.
In data set [5] (setting [6]), `CCC(O)(CC)c1csc(C(=O)c2c[nH]c3cc(F)ccc23)n1` [ARI-210, (6-fluoro-1H-indol-3-yl)(4-(3-hydroxypentan-3-yl)thiazol-2-yl)methanone] displayed a concentration for an effect of 90% (EC90) of 627 nM. The pEC50 in data set [5] (human HepG2 cells, Plate 1) was 6.62. The half-life at 1 μM in data set [1] was 42 min; in data set [3], 24 min. In addition, the hepatocyte CLint at 1 μM in data set [1] turned out to be 16 µL/min/1e6 cells; in data set [3], 29.9 µL/min/1e6 cells. Also, the results for the “EH (hepatic extraction ratio)” value in data set [2] and in data set [4] were 25.4% and 66.7%, respectively.
Turning to `CC[C@H](O)c1nc(C(=O)c2c[nH]c3cc(F)ccc23)cs1` [ARI-213], it took 672 nM to reach the 90% level in data set [5] (setting [6]) (EC90). This compound also showed a pEC50 in data set [5] (human HepG2 cells, Plate 1) of 6.32. In addition, the half-life at 1 μM in data set [1] and in data set [3] was 48 min throughout. Besides, the figures for the intrinsic clearance (hepatocyte CLint) at 1 μM in data set [1] and in data set [3] were 14 µL/min/1e6 cells and 13.9 µL/min/1e6 cells, respectively. Besides, the “EH (hepatic extraction ratio)” value in data set [2] was determined as 24.7%; in data set [4], 48.1%.
In turn, `CC[C@@H](O)c1nc(C(=O)c2c[nH]c3cc(F)ccc23)cs1` [ARI-214] showed a concentration for an effect of 90% (EC90) in data set [5] (setting [6]) of 2810 nM. Also, in data set [5] (human HepG2 cells, Plate 1), the pEC50 was 6.24. For the same compound, the half-life at 1 μM was 30 min in data set [1] and 84 min in data set [3]. Moreover, the figures for the intrinsic clearance (hepatocyte CLint) at 1 μM in data set [1] and in data set [3] were 21.5 µL/min/1e6 cells and 8.01 µL/min/1e6 cells, respectively. The results for the “EH (hepatic extraction ratio)” value in data set [2] and in data set [4] were 26.7% and 34.9%, respectively.
Regarding `CC(C)(O)c1csc(C(=O)c2c[nH]c3ccccc23)n1` [ARI-215, (1H-indol-3-yl)(4-(2-hydroxypropan-2-yl)thiazol-2-yl)methanone], in data set [5] (setting [6]), the 90% effect level (EC90) was put at 135 nM. Besides, the negative logarithm of the EC50 (pEC50) in data set [5] (human HepG2 cells, Plate 1) is 6.92. Moreover, the figures for the half-life at 1 μM in data set [1] and in data set [3] were 36 min and 54 min, respectively. Besides, the hepatocyte CLint at 1 μM in data set [1] amounted to 17.9 µL/min/1e6 cells; in data set [3], 13.4 µL/min/1e6 cells. For the same compound, the figures for the “EH (hepatic extraction ratio)” value in data set [2] and in data set [4] were 25.9% and 47.3%, respectively.
